Patent US7598279B2, “Neurotherapeutic azole compounds” (SK Holdings Co., Ltd., priority 2005, dated 2009)

Legend:
Assay type in all cases: in vivo
mice [1] = test: Maximal ElectroShock (MES)-induced tonic seizure test; settings: Mus musculus; for ED50: read-out: Mice MES ED50 (mpk/peak time); for responders at 30 mg/kg: read-out: Mice MES Protection % (mpk/peak time)
Procedure: The “Maximal ElectroShock (MES)” test is a well-established pharmacological screening method for anticonvulsants against tonic-clonic seizures. The procedure employed in the MES test for anticonvulsants is as follows. The compounds to be tested were dissolved in 30% PEG400 and administered ip and po into animals. After the designated number of hours, maximal electroshock (50 mA, 60 Hz, 0.2 sec) was applied into animals via corneal electrodes using IITC Life Science model 11A Shocker. […] Median efficacy dose (ED50) levels were determined using three different dose levels with at least 8 mice in each group.

mice [2] = test: Forced swimming test (FST); settings: 30 min after dosing
Procedure: The “Forced swimming test (FST)” for antidepressant activity was also carried out. The procedure employed in the FST for antidepressant is as follows. The compounds to be tested were dissolved in 30% PEG400 and administered ip and po into animals. 30 min later, the immobility time during post 4 minutes of 6 minutes experiment time was measured.

mice [3] = test: Pentylenetetrazol (PTZ)-induced clonic seizure test; settings: Mus musculus; for responders at 30 mg/kg: read-out: Mice PTZ Protection % (mpk/peak time)
Procedure: The “Pentylenetetrazol (PTZ)” test for anticonvulsant and antianxiety activity was also carried out.
The procedure employed in the PTZ test is as follows. The compounds to be tested were dissolved in 30% PEG400 and administered ip and po into animals. After the designated number of hours, each animal was injected subcutaneously with 100 mg/kg of PTZ (CD97 dose) and observed for up to 30 minutes for the presence or absence of clonic spasms over 5 seconds. Median efficacy dose (ED50) levels were determined using three different dose levels with 8 mice in each group.

[4] = 3 mice, 30 mpk, 0.5, 1, 2, 4 hr

Q: What does the source list for `NC(=O)O[C@@H](Cn1ncnn1)c1ccc(Cl)cc1` [Example 42, Carbamic acid (R)-1-(4-chloro-phenyl)-2-tetrazol-2-yl-ethyl ester]?
A: ED50 (mice [1]; 0.5 h): 18.2 mg/kg; Mice FST Reduction of immobility % (mice [2]; dose not given): 44.1%

Q: How did the ED50 (mice [1]; 0.5 h) turn out when `O=C(OC(Cn1ncnn1)c1ccccc1Cl)N1CCC(Cc2ccc(Cl)cc2)C1` (stereo not shown) [Example 196, 3-(4-Chloro-benzyl)-pyrrolidine-1-carboxylic acid 1-(2-chloro-phenyl)-2-tetrazol-2-yl-ethyl ester] was run?
A: 15.3 mg/kg

Q: What about the responders at 30 mg/kg (mice [3]; 4 h) of the same molecule?
A: 33.3%

Q: What about the “Mice FST Reduction of immobility %” value (mice [2]) of the same molecule?
A: N.S

Q: Which results are given for `O=C(OC(COc1ccc(Cl)c(Cl)c1)Cn1nccn1)N1CCC(CCc2ccccc2)C1` (stereo not shown) [Example 207, 3-Phenethyl-pyrrolidine-1-carboxylic acid 2-(3,4-dichloro-phenoxy)-1-[1,2,3]triazol-2-ylmethyl-ethyl ester]?
A: responders at 30 mg/kg (mice [1]; 3 mice, 30 mpk, 0.5, 1, 4 hr): 100%; Mice FST Reduction of immobility % (mice [2]; dose not given): 43.4%

Q: For `NC(=O)OC(Cc1ccccc1)Cn1ncnn1` (stereo not shown) [Example 116, Carbamic acid 2-phenyl-1-tetrazol-2-ylmethyl-ethyl ester], which responders at 30 mg/kg (mice [1]; 1 h) is on record?
A: 100%

Q: And the responders at 30 mg/kg (mice [3]; 2 h)?
A: 33.3%

Q: And the “Mice FST Reduction of immobility %” value (mice [2]; dose not given)?
A: 30.0%

Q: Which ED50 (mice [1]; 0.5 h) does the source give for `O=C(OC(Cn1ncnn1)c1ccc(Cl)cc1Cl)N1CCC(Cc2ccc(Cl)c(Cl)c2)CC1` (stereo not shown) [Example 194, 4-(3,4-Dichloro-benzyl)-piperidine-1-carboxylic acid 1-(2,4-dichloro-phenyl)-2-tetrazol-2-yl-ethyl ester] here?
A: 11.9 mg/kg

Q: And the responders at 30 mg/kg (mice [3]; 2 h)?
A: 33.3%

Q: What about the “Mice FST Reduction of immobility %” value (mice [2]; dose not given) of the same molecule?
A: 53.4%

Q: Which results are given for `NC(=O)OC(Cn1nccn1)c1ccc(Cl)cc1` (stereo not shown) [Example 10, Carbamic acid 1-(4-chloro-phenyl)-2-[1,2,3]triazol-2-yl-ethyl ester]?
A: ED50 (mice [1]; 0.5 h): 21.3 mg/kg; Mice FST Reduction of immobility % (mice [2]; dose not given): 45.1%

Q: `O=C(OC(COc1cc(Cl)ccc1Cl)Cn1ncnn1)N1CCC(CCc2ccccc2)C1` (stereo not shown) [Example 208, 3-Phenethyl-pyrrolidine-1-carboxylic acid 2-(2,5-dichloro-phenoxy)-1-tetrazol-2-ylmethyl-ethyl ester] was tested. Which responders at 30 mg/kg (mice [1]; 3 mice, 30 mpk, 0.5, 1, 4 hr) did it give?
A: 100%

Q: What about the responders at 30 mg/kg (mice [3]; 3 mice, 30 mpk, 4 hr) of the same molecule?
A: 33.3%

Q: And the “Mice FST Reduction of immobility %” value (mice [2]; dose not given)?
A: 48.2%

Q: Which results are given for `O=C(OC(Cn1nccn1)c1ccccc1Cl)N1CCC(Cc2ccc(Cl)c(Cl)c2)CC1` (stereo not shown) [Example 200, 4-(3,4-Dichloro-benzyl)-piperidine-1-carboxylic acid 1-(2-chloro-phenyl)-2-[1,2,3]triazol-2-yl-ethyl ester]?
A: responders at 30 mg/kg (mice [1]; 3 mice, 30 mpk, 0.5, 4 hr): 100%; Mice FST Reduction of immobility % (mice [2]; dose not given): 25.9%

Q: Which responders at 30 mg/kg (mice [1]; [4]) does the source give for `O=C(OC(Cn1ncnn1)c1ccc(Cl)cc1Cl)N1CCC(CCc2ccccc2)C1` (stereo not shown) [Example 203, 3-Phenethyl-pyrrolidine-1-carboxylic acid 1-(2,4-dichloro-phenyl)-2-tetrazol-2-yl-ethyl ester] here?
A: 100%

Q: What about the “Mice FST Reduction of immobility %” value (mice [2]; dose not given) of the same molecule?
A: 44.0%

Q: How did the responders at 30 mg/kg (mice [1]; 4 h) turn out when `O=C(OC(Cn1ncnn1)c1cc(Cl)ccc1Cl)N1CCC(Cc2ccc(Cl)c(Cl)c2)CC1` (stereo not shown) [Example 191, 4-(3,4-Dichloro-benzyl)-piperidine-1-carboxylic acid 1-(2,5-dichloro-phenyl)-2-tetrazol-2-yl-ethyl ester] was run?
A: 66.7%

Q: And the ED50 (mice [3]; sc, read-out: Mice PTZ ED50 (mpk/peak time))?
A: > 30 mg/kg

Q: And the “Mice FST Reduction of immobility %” value (mice [2]; dose not given)?
A: 50.6%

Q: With `O=C(OC(Cn1cnnn1)c1ccccc1Cl)N1CCC(Cc2ccc(Cl)c(Cl)c2)CC1` (stereo not shown) [Example 201, 4-(3,4-Dichloro-benzyl)-piperidine-1-carboxylic acid 1-(2-chloro-phenyl)-2-tetrazol-1-yl-ethyl ester] as the molecule, how does the responders at 30 mg/kg (mice [1]; 3 mice, 30 mpk, 1, 2, 4 hr) read?
A: 100%

Q: And the “Mice FST Reduction of immobility %” value (mice [2]; dose not given)?
A: 54.0%

Q: Which ED50 (mice [1]; 0.5 h) does the source give for `NC(=O)O[C@@H](Cn1nccn1)c1ccc(Cl)c(Cl)c1` [Example 91, Carbamic acid (R)-1-(3,4-dichloro-phenyl)-2-[1,2,3]triazol-2-yl-ethyl ester] here?
A: 16 mg/kg

Q: And the “Mice FST Reduction of immobility %” value (mice [2]; dose not given)?
A: 94.0%

Q: How did the ED50 (mice [1]; 0.5 h) turn out when `O=C(OC(Cn1ncnn1)c1ccccc1Cl)N1CCC(CCc2ccccc2)C1` (stereo not shown) [Example 181, 3-Phenethyl-pyrrolidine-1-carboxylic acid 1-(2-chloro-phenyl)-2-tetrazol-2-yl-ethyl ester] was run?
A: 12.1 mg/kg

Q: And the responders at 30 mg/kg (mice [3]; 4 h)?
A: 33.3%

Q: And the “Mice FST Reduction of immobility %” value (mice [2]; dose not given)?
A: 30.6%

Q: How did the responders at 30 mg/kg (mice [1]; [4]) turn out when `O=C(OC(COc1ccc(Cl)cc1Cl)Cn1nccn1)N1CCC(CCc2ccccc2)C1` (stereo not shown) [Example 206, 3-Phenethyl-pyrrolidine-1-carboxylic acid 2-(2,4-dichloro-phenoxy)-1-[1,2,3]triazol-2-ylmethyl-ethyl ester] was run?
A: 100%

Q: And the responders at 30 mg/kg (mice [3]; 3 mice, 30 mpk, 2, 4 hr)?
A: 66.7%

Q: What about the “Mice FST Reduction of immobility %” value (mice [2]; dose not given) of the same molecule?
A: 51.4%

Q: `O=C(OC(Cn1ncnn1)c1ccccc1Cl)N1CCC(Cc2ccc(Cl)c(Cl)c2)CC1` (stereo not shown) [Example 175, 4-(3,4-Dichloro-benzyl)-piperidine-1-carboxylic acid 1-(2-chloro-phenyl)-2-tetrazol-2-yl-ethyl ester] was tested. Which ED50 (mice [1]; 0.5 h) did it give?
A: 20.2 mg/kg

Q: And the responders at 30 mg/kg (mice [3]; 4 h)?
A: 66.7%

Q: And the “Mice FST Reduction of immobility %” value (mice [2])?
A: N.S

Q: What does the source list for `O=C(OC(Cn1ncnn1)c1cc(Cl)ccc1Cl)N1CCC(CCc2ccccc2)C1` (stereo not shown) [Example 202, 3-Phenethyl-pyrrolidine-1-carboxylic acid 1-(2,5-dichloro-phenyl)-2-tetrazol-2-yl-ethyl ester]?
A: ED50 (mice [1]; mice, peak time 0.5 hr): 11.4 mg/kg; responders at 30 mg/kg (mice [3]; 3 mice, 30 mpk, 1, 4 hr): 33.3%; Mice FST Reduction of immobility % (mice [2]; dose not given): 81.2%

Q: What does the source list for `NC(=O)OC(Cn1ncnn1)c1ccc(Cl)cc1` (stereo not shown) [Example 5, Carbamic acid 1-(4-chloro-phenyl)-2-tetrazol-2-yl-ethyl ester]?
A: ED50 (mice [1]; 0.5 h): 18.4 mg/kg; Mice FST Reduction of immobility % (mice [2]; dose not given): 71.7%

Q: Which results are given for `O=C(OC(Cn1ncnn1)c1ccc(Cl)c(Cl)c1)N1CCC(Cc2ccc(Cl)c(Cl)c2)CC1` (stereo not shown) [Example 195, 4-(3,4-Dichloro-benzyl)-piperidine-1-carboxylic acid 1-(3,4-dichloro-phenyl)-2-tetrazol-2-yl-ethyl ester]?
A: ED50 (mice [1]; mice, peak time 0.5 hr): 15.3 mg/kg; responders at 30 mg/kg (mice [3]; 3 mice, 30 mpk, 0.5, 1 hr): 33.3%; Mice FST Reduction of immobility % (mice [2]; dose not given): 31.9%

Q: `O=C(OC(Cn1ncnn1)c1ccccc1Cl)N1CCC(Cc2cc(C(F)(F)F)cc(C(F)(F)F)c2)CC1` (stereo not shown) [Example 197, 4-(3,5-Bis-trifluoromethyl-benzyl)-piperidine-1-carboxylic acid 1-(2-chloro-phenyl)-2-tetrazol-2-yl-ethyl ester] was tested. Which ED50 (mice [1]; 0.5 h) did it give?
A: 6.3 mg/kg

Q: And the responders at 30 mg/kg (mice [3]; 4 h)?
A: 100%

Q: What about the “Mice FST Reduction of immobility %” value (mice [2]) of the same molecule?
A: N.S

Q: Which ED50 (mice [1]; 0.5 h) does the source give for `NC(=O)OC(Cn1nccn1)c1ccccc1C(F)(F)F` (stereo not shown) [Example 39, Carbamic acid 2-[1,2,3]triazol-2-yl-1-(2-trifluoromethyl-phenyl)-ethyl ester] here?
A: 12.5 mg/kg

Q: Which results are given for `O=C(OC(Cn1ncnn1)c1ccc(Cl)c(Cl)c1)N1CCC(CCc2ccccc2)C1` (stereo not shown) [Example 204, 3-Phenethyl-pyrrolidine-1-carboxylic acid 1-(3,4-dichloro-phenyl)-2-tetrazol-2-yl-ethyl ester]?
A: responders at 30 mg/kg (mice [1]; 3 mice, 30 mpk, 0.5, 1, 2 hr): 100%; Mice FST Reduction of immobility % (mice [2]; dose not given): 51.2%
